± gives the expanded uncertainty stated by the source.
Experiments:
[1] = Molar enthalpy of transition or fusion; conditions: Crystal; DSC
[2] = Crystal; DSC

Compound: Nc1nc(Cl)cc(Cl)n1 [2-amino-4,6-dichloropyrimidine]
- Molar enthalpy of transition or fusion [1]: 4.66 ± 0.215 kcal/mol
- Triple point temperature [2]: 496.42 ± 1.2 K

From the NIST ThermoML archive (doi:10.1021/acs.jced.8b00292)
